Results: US20160168118A1, “N-(5-QUINOLIN-6-YL)PYRIDIN-3-YL) BENZSULFAMIDE DERIVATIVES, PREPARATION METHOD AND THERAPEUTIC USE THEREOF” (SECOND MILITARY MEDICAL UNIVERSITY, PLA, priority 2012, published 2016)
In brackets after ≈: the same amount, converted by molar mass.

How the values were obtained:
[1] = system: A549 (human lung cancer cells); assay: MTT assay, A549; format: cell-based; conditions: 72 h
Protocol: (§1) 1. Sample preparation: After dissolved with DMSO (Merck), PBS (−) was added to make 1000 μg/ml solution or a uniform suspension, and then diluted with PBS (−) containing the DMSO. Doxorubicin (DOX) was used as the positive control drug.
(§2) 2. Cell Line • 1) A549 (human lung cancer cells); 2) HCT116 (human colon cancer cells); 3) HepG2 (human hepatoma cells); 4) ZR-75-30 (human breast cancer cells); 5) U87MG (human brain star glioblastoma)
(§3) DMEM+5-10% FBS+double resistant
(§4) MTT assay. 100 μl cell suspension was added at a concentration of 4˜5×10^4 cells/ml to each well of a 96-well plate, and was set at 37° C., 5% CO2 in the incubator. After 24 h, the sample solution was added, 10 μl/hole, double wells were set, 37° C., acting for 72 h at 5% CO2. […] of 5 mg/ml was added to each well, the dissolving liquid was added after acted for 4 h, 100 μl/hole, kept in the incubator, and read 570 nm OD with MK-2 automatic microplate reader after dissolution.

[2] = system: HepG2 (human hepatoma cells); assay: MTT assay, HepG2; format: cell-based; conditions: 72 h
Protocol: as §1, §2, §3, §4

[3] = target: PI3Kα (Homo sapiens, UniProt P42336); assay: Kinase-Glo Luminescent Kinase Assay, PI3Kα; format: biochemical
Sequence of PI3Kα (P42336 whole entry, species assumed): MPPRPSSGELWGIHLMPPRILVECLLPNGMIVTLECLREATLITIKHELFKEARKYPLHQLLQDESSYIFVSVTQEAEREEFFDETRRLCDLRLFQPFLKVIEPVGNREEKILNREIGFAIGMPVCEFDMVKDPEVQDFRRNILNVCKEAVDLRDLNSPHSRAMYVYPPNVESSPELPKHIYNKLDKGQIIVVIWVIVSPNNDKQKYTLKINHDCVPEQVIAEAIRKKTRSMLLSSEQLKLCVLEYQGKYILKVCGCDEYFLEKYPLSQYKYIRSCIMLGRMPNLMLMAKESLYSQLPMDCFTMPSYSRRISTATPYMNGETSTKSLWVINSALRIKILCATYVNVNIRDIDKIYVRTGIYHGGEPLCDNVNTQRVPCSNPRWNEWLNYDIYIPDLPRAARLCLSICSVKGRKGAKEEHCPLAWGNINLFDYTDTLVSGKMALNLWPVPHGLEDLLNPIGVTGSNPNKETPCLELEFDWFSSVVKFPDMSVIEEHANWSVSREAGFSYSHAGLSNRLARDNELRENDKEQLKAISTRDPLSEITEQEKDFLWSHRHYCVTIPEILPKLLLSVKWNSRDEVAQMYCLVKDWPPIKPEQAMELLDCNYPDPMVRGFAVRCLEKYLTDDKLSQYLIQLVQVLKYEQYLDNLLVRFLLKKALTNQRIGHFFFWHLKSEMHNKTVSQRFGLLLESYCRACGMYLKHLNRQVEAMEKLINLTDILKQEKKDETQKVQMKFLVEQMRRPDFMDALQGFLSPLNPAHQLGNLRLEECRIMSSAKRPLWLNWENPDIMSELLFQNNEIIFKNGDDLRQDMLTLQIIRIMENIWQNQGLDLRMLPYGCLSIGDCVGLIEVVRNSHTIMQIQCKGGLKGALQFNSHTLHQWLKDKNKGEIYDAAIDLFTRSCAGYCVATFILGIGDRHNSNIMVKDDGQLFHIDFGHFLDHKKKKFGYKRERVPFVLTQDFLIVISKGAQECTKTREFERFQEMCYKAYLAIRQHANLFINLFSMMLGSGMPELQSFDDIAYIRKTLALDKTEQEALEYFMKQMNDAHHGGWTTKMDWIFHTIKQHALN
Sequence of PI3Kα (P27986 whole entry partner, species assumed): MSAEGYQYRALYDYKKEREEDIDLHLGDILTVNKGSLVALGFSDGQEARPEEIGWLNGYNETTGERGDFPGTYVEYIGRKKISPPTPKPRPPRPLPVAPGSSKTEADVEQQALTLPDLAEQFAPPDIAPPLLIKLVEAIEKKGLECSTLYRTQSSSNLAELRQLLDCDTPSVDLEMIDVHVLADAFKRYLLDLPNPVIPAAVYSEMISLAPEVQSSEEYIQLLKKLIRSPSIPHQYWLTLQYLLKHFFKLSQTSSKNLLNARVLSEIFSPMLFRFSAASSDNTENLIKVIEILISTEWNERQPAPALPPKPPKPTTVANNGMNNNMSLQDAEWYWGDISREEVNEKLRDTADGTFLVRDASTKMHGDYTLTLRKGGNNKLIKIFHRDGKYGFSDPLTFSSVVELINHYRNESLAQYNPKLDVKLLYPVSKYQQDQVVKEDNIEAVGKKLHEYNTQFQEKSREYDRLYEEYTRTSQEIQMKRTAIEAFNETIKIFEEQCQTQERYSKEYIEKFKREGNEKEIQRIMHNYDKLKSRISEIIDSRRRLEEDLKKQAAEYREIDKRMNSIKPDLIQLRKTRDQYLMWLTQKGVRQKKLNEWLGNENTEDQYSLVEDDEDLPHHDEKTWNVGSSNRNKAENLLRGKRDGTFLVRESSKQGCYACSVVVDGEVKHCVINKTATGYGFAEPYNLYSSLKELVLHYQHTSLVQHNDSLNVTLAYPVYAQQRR

[4] = system: HCT116 (human colon cancer cells); assay: MTT assay, HCT116; format: cell-based; conditions: HCT-116, 72 h
[5] = system: U87MG (human brain star glioblastoma); assay: MTT assay, U87MG; format: cell-based; conditions: U-87 MG, 72 h
Protocol: as §1, §2, §3, §4

| Compound | IC50 [1] | IC50 [2] | IC50 [3] | IC50 [4] | melting point | IC50 [5] |
| --- | --- | --- | --- | --- | --- | --- |
| O=S(=O)(Nc1cc(-c2ccc3nccc(-c4ccc(CN5CCOCC5)cc4)c3c2)cnc1Cl)c1ccc(F)cc1 [Compound 28, N-(5-(4-(4-((morpholino-1-yl)methyl)phenyl)quinolin-6-yl)-2-chlorinepyridin-3-yl)-4-fluorobenzenesulfonamide] | 0.47 µg/mL (≈ 0.798 µM) | 4.55 µg/mL (≈ 7.72 µM) | 1.5 nM | 1.87 µg/mL (≈ 3.17 µM) |  |  |
| CN(CCO)Cc1ccc(-c2ccnc3ccc(-c4cnc(Cl)c(NS(=O)(=O)c5ccc(F)cc5)c4)cc23)cc1 [Compound 36, N-(5-(4-(4-(((2-hydroxyethyl)(methyl)amino)methyl)phenyl)quinolin-6-yl)-2-chlorinepyridin-3-yl)-4-fluorobenzenesulfonamide] | 0.13 µg/mL (≈ 0.225 µM) | 1.1 µg/mL (≈ 1.91 µM) | 1 nM | 1.06 µg/mL (≈ 1.84 µM) | 214 to 217 °C |  |
| O=S(=O)(Nc1cc(-c2ccc3nccc(-n4cncn4)c3c2)cnc1Cl)c1ccc(F)cc1F [Compound 26, N-(5-(4-(1H-1,2,4-triazole-1-yl)quinolin-6-yl)-2-chlorinepyridin-3-yl)-2,4-difluorobenzenesulfonamide] | 2.35 µg/mL (≈ 4.71 µM) | 2.8 µg/mL (≈ 5.61 µM) | 0.59 nM | 1.23 µg/mL (≈ 2.47 µM) | 118 to 121 °C |  |
| COc1ncc(-c2ccc3nccc(-c4ccc(CN(CCO)CCO)cc4)c3c2)cc1NS(=O)(=O)c1ccc(F)cc1F [Compound 20, N-(5-(4-(4-((di(2-hydroxyethyl)amino)methyl)phenyl)quinolin-6-yl)-2-methoxypyridine-3-yl)-2,4-difluorobenzenesulfonamide] | 0.00174 µg/mL (≈ 0.0028 µM) |  | 1.3 nM | 0.00237 µg/mL (≈ 0.00382 µM) | 90 to 91 °C | 0.089 µg/mL (≈ 0.143 µM) |
| CCN(Cc1ccc(-c2ccnc3ccc(-c4cnc(OC)c(NS(=O)(=O)c5ccc(F)cc5F)c4)cc23)cc1)C1CCCCC1 [Compound 22, N-(5-(4-(4-((cyclohexyl(ethyl)amino)methyl)phenyl)quinolin-6-yl)-2-methoxypyridine-3-yl)-2,4-difluorobenzenesulfonamide] | 0.013 µg/mL (≈ 0.0202 µM) |  | 1.6 nM | 0.143 µg/mL (≈ 0.222 µM) | 87 to 88 °C | 0.93 µg/mL (≈ 1.45 µM) |
| COc1ncc(-c2ccc3nccc(-c4ccc(CN5CCOCC5)cc4)c3c2)cc1NS(=O)(=O)c1ccc(F)cc1F [Compound 13, N-(5-(4-(4-((morpholino-1-yl)methyl)phenyl)quinolin-6-yl)-2-methoxypyridine-3-yl)-2,4-difluorobenzenesulfonamide] | 0.042 µg/mL (≈ 0.0697 µM) |  | 1.1 nM | 0.00196 µg/mL (≈ 0.00325 µM) | 97 to 99 °C | 0.091 µg/mL (≈ 0.151 µM) |
| COc1ncc(-c2ccc3nccc(-c4ccc(CN(C)C)cc4)c3c2)cc1NS(=O)(=O)c1ccc(F)cc1 [Compound 31, N-(5-(4-(4-((dimethylamine)methyl)phenyl)quinolin-6-yl)-2-methoxypyridine-3-yl)-4-fluorobenzenesulfonamide] | 0.2 µg/mL (≈ 0.369 µM) | 1.64 µg/mL (≈ 3.02 µM) | 2.1 nM | 1.02 µg/mL (≈ 1.88 µM) | 150 to 152 °C |  |
| COc1ncc(-c2ccc3nccc(-c4ccc(CN5CCN(CCO)CC5)cc4)c3c2)cc1NS(=O)(=O)c1ccc(F)cc1F [Compound 19, N-(5-(4-(4-((4-(2-hydroxyethyl)piperazine-1-yl)methyl)phenyl)quinolin-6-yl)-2-methoxypyridine-3-yl)-2,4-difluorobenzenesulfonamide] | 0.016 µg/mL (≈ 0.0248 µM) |  | 1.2 nM | 0.014 µg/mL (≈ 0.0217 µM) |  | 0.137 µg/mL (≈ 0.212 µM) |
| COc1ncc(-c2ccc3nccc(-c4ccc(CN5CCCC5)cc4)c3c2)cc1NS(=O)(=O)c1ccc(F)cc1F [Compound 12] | 0.022 µg/mL (≈ 0.0375 µM) |  | 1.4 nM | 0.011 µg/mL (≈ 0.0188 µM) | 129 to 130 °C | 0.093 µg/mL (≈ 0.159 µM) |
| COc1ncc(-c2ccc3nccc(-c4ccc(CN5CCCCC5)cc4)c3c2)cc1NS(=O)(=O)c1ccc(F)cc1F [Compound 14, N-(5-(4-(4-((piperidine-1-yl)methyl)phenyl)quinolin-6-yl)-2-methoxypyridine-3-yl)-2,4-difluorobenzenesulfonamide] | 0.00934 µg/mL (≈ 0.0155 µM) |  | 1.2 nM | 0.0205 µg/mL (≈ 0.0341 µM) |  | 0.019 µg/mL (≈ 0.0316 µM) |
| CN(C)Cc1ccc(-c2ccnc3ccc(-c4cnc(Cl)c(NS(=O)(=O)c5ccc(F)cc5F)c4)cc23)cc1 [Compound 32, N-(5-(4-(4-((dimethylamine)methyl)phenyl)quinolin-6-yl)-2-chlorinepyridin-3-yl)-2,4-difluorobenzenesulfonamide] | 2.12 µg/mL (≈ 3.75 µM) | 2.18 µg/mL (≈ 3.86 µM) | 0.69 nM | 1.03 µg/mL (≈ 1.82 µM) | 160 to 164 °C |  |
| COc1ncc(-c2ccc3nccc(-c4ccc(CN5CCN(C)CC5)cc4)c3c2)cc1NS(=O)(=O)c1ccc(F)cc1F [Compound 23, N-(5-(4-(4-((4-methylpiperazine-1-yl)methyl)phenyl)quinolin-6-yl)-2-methoxypyridine-3-yl)-2,4-difluorobenzenesulfonamide] | 0.00818 µg/mL (≈ 0.0133 µM) |  | 1.3 nM | 0.027 µg/mL (≈ 0.0439 µM) |  | 0.207 µg/mL (≈ 0.336 µM) |
| O=S(=O)(Nc1cc(-c2ccc3nccc(-c4ccc(CN5CCOCC5)cc4)c3c2)cnc1Cl)c1ccc(F)cc1F [Compound 30, N-(5-(4-(4-((morpholino-1-yl)methyl)phenyl)quinolin-6-yl)-2-chlorinepyridin-3-yl)-2,4-difluorobenzenesulfonamide] | 0.22 µg/mL (≈ 0.362 µM) | 1.4 µg/mL (≈ 2.31 µM) | 1.1 nM | 2.39 µg/mL (≈ 3.94 µM) |  |  |
| COc1ncc(-c2ccc3nccc(-c4ccc(CN(C)CCO)cc4)c3c2)cc1NS(=O)(=O)c1ccc(F)cc1 [Compound 38, N-(5-(4-(4-(((2-hydroxyethyl)(methyl)amino)methyl)phenyl)quinolin-6-yl)-2-methoxypyridine-3-yl)-4-fluorobenzenesulfonamide] | 0.19 µg/mL (≈ 0.332 µM) | 1.06 µg/mL (≈ 1.85 µM) | 4.8 nM | 1.12 µg/mL (≈ 1.96 µM) |  |  |
| COc1ncc(-c2ccc3nccc(-c4ccc(C(=O)N5CCCC5)cc4)c3c2)cc1NS(=O)(=O)c1ccc(F)cc1F [Compound 11, N-(2-methoxy-5-(4-(4-(pyrrolidinyl-1-carbonyl)phenyl)quinolin-6-yl)pyridin-3-yl)-2,4-difluorobenzenesulfonamide] | 0.048 µg/mL (≈ 0.0799 µM) |  | 0.7 nM | 0.221 µg/mL (≈ 0.368 µM) | 115 to 117 °C | 0.284 µg/mL (≈ 0.473 µM) |
| COc1ncc(-c2ccc3nccc(-c4ccc(CN5CCOCC5)cc4)c3c2)cc1NS(=O)(=O)c1ccc(F)cc1 [Compound 29, N-(5-(4-(4-((morpholino-1-yl)methyl)phenyl)quinolin-6-yl)-2-methoxypyridine-3-yl)-4-fluorobenzenesulfonamide] | 0.15 µg/mL (≈ 0.257 µM) | 15.9 µg/mL (≈ 27.1 µM) | 1.6 nM | 1.37 µg/mL (≈ 2.34 µM) |  |  |
| COc1ncc(-c2ccc3nccc(-c4ccc(Cn5ccnc5C)cc4)c3c2)cc1NS(=O)(=O)c1ccc(F)cc1F [Compound 16, N-(5-(4-(4-((2-methyl-1H-imidazole-1-yl)methyl)phenyl)quinolin-6-yl)-2-methoxypyridine-3-yl)-2,4-difluorobenzenesulfonamide] | 0.00608 µg/mL (≈ 0.0102 µM) |  | 0.95 nM | 0.00846 µg/mL (≈ 0.0142 µM) | 110 to 111 °C | 0.024 µg/mL (≈ 0.0402 µM) |
| COc1ncc(-c2ccc3nccc(-c4ccc(Cn5ccnc5)cc4)c3c2)cc1NS(=O)(=O)c1ccc(F)cc1F [Compound 15, N-(5-(4-(4-((1H-imidazole-1-yl)methyl)phenyl)quinolin-6-yl)-2-methoxypyridine-3-yl)-2,4-difluorobenzenesulfonamide] | 0.018 µg/mL (≈ 0.0308 µM) |  | 1.1 nM | 0.019 µg/mL (≈ 0.0326 µM) | 108 to 109 °C | 0.35 µg/mL (≈ 0.6 µM) |
| COc1ncc(-c2ccc3nccc(-c4ccc(CN5CCN(C(C)C)CC5)cc4)c3c2)cc1NS(=O)(=O)c1ccc(F)cc1F [Compound 18, N-(5-(4-(4-((4-isopropylpiperazine-1-yl)methyl)phenyl)quinolin-6-yl)-2-methoxypyridine-3-yl)-2,4-difluorobenzenesulfonamide] | 0.00124 µg/mL (≈ 0.00193 µM) |  | 1.7 nM | 0.0159 µg/mL (≈ 0.0247 µM) |  | 0.301 µg/mL (≈ 0.468 µM) |
| COc1ncc(-c2ccc3nccc(-c4ccc(CN(C)CCN(C)C)cc4)c3c2)cc1NS(=O)(=O)c1ccc(F)cc1F [Compound 24] | 0.00804 µg/mL (≈ 0.013 µM) |  | 2.5 nM | 0.032 µg/mL (≈ 0.0518 µM) | 87 to 88 °C | 0.157 µg/mL (≈ 0.254 µM) |
| COc1cccc2c1C(=O)c1c(O)c3c(c(O)c1C2=O)C[C@@](O)(C(=O)CO)C[C@@H]3O[C@H]1C[C@H](N)[C@H](O)[C@H](C)O1 [DOX, Doxorubicin, reference compound] | 0.324 µg/mL (≈ 0.596 µM) |  |  | 0.0308 µg/mL (≈ 0.0567 µM) |  | 0.536 µg/mL (≈ 0.986 µM) |
| COc1ncc(-c2ccc3nccc(-c4ccc(Cn5cccn5)cc4)c3c2)cc1NS(=O)(=O)c1ccc(F)cc1F [Compound 21, N-(5-(4-(4-((1H-pyrazole-1-yl)methyl)phenyl)quinolin-6-yl)-2-methoxypyridine-3-yl)-2,4-difluorobenzenesulfonamide] | 0.018 µg/mL (≈ 0.0308 µM) |  | 1.1 nM | 0.031 µg/mL (≈ 0.0531 µM) | 93 to 95 °C | 0.935 µg/mL (≈ 1.6 µM) |
